Tests used:
Type in all cases: cell-based
[1] = system: Pseudomonas aeruginosa (PAO1) biofilm; test: Peg-lid biofilm formation assay (crystal violet, 595 nm); conditions: dilutions 0.010% to 10.000%
Protocol: (§1) The anti-bacterial properties of ascorbic acid were evaluated by testing the effect of dilutions of the material on both biofilm and planktonic growth forms of a Pseudomonas aeruginosa isolate that was obtained from patients with cystic fibrosis. Pseudomonas aeruginosa is a common pathogen isolated from the sinuses of patients with chronic rhinosinusitis. The results of this evaluation as shown graphically in FIG. 1.
(§2) Known concentrations of the bacteria were placed in the 96 well culture plates. Dilutions of ascorbic acid (0% (Control), 0.010%, 0.033%, 0.100%, 0.330%, 1.000%, 3.330%, and 10.000%) were added to predetermined wells. […] The bacterial growth was measured both on the pegs as a biofilm and in the wells as planktonic cells.
(§3) More specifically, both bacterial planktonic and biofilm growth were determined using a modification of the plate based assay described by “Moskowitz et al. (Moskowitz S M, Foster J M, Emerson J, et al. Clinically feasible biofilm susceptibility for isolates of Pseudomonas aeruginosa from patients with cystic fibrosis. J. Clin. Microbiol. 2004, 42: 1915-1922). […] The original culture plate was read at OD600 to determine planktonic growth. […] The lid containing the pegs was then removed from the eluted crystal violet and read at 595 nm using a plate reader (Microplate Reader 680, Bio-Rad Hercules, Calif.). […]

[2] = system: human sinonasal mucosa cilia; test: Cilia beat frequency (CBF) in human sinonasal mucosa explants
Description: […] were subjected to concentrations of the nasal spray solution to test the effect of the product on the cilia beat frequency (CBF). The samples were microscopically visualized and the images captured at a rate of 250 frames per second using digital image sampling. The samples were first visualized for two to three seconds every minute for five minutes to establish a baseline Cilia Beating Rate. The samples were then subjected to dilutions of the formulation and the effect on the beating rate was measured by comparing this rate to the baseline rate. The results of the measured CBF are seen in FIG. 2.
More specifically, using a dual temperature controlled perfusion chamber, differential interference contrast microscopy, and high speed digital video, epithelial ciliary function was analyzed as described previously (Schipor I, Palmer I N, Cohen A S, Cohen N A. Quantification of ciliary beat frequency in sinonasal epithelial cells using differential interference contrast microscopy and high speed digital video imaging. Am J Rhino 12006; 20: 124-7). Residual human sinonasal mucosa from surgery was placed in ice cold Locke Ringer's solution [136 mM Nacl, 5.6 mM KCI, 10 mM HEPES, 14.3 mM NaHCO, 1.2 mM MgCl2, 2.2 mM CaCl2 and 11.5 mM dextrose, pH 7.35] for transport. Explants were placed in a glass perfusion chamber on a thermostatically controlled stage and held in place with a nylon grid (1.5 mm) whose outer frame is snapped into the inside of the perfusion chamber. The stage and perfusate were maintained at a temperature between 35.5° C. and 37° C. with a dual channel heater (Warner Inst., Hamden Conn.). […]
Images were visualized using a Leica DMLFSA microscope set on an air table (TMC, Peabody, Mass.) using a water immersion 63× objective and differential interference contrast (DIC) optics (Leica Microsystems, Inc., Bannockburn, Ill.). […] A two to three second video was recorded every minute for 5 minutes to establish a baseline frequency. […] The video images were written to a PCI 2.2 board and then analyzed using Midas Professional Analyst video imaging processing software (XCitex, Cambridge, Mass.).
Beating cilia were analyzed using the 1-D line tracking algorithm included in the motion analysis software. […] The software captured the motion history within the analysis grid for the duration of the video and recorded the gray scale intensity variation as a function of time. […] The frequency was calculated as the inverse of the peak-to-peak distance of this waveform. For each sample, at least three areas of beating cilia within the same field were analyzed and the reported frequencies represent the arithmetic means of these values. […]

[3] = system: Pseudomonas aeruginosa (PAO1); test: Plate based assay, planktonic growth (OD600); conditions: dilutions 0.010% to 10.000%
Protocol: as §1, §2, §3

O=C1O[C@H]([C@@H](O)CO)C(O)=C1O [ascorbate, ascorbic acid]
inhibition of biofilm form (in words) [1]: dose dependent inhibition | sinonasal CBF with increasing concentration (in words) ([2]; 0.01% to 0.1%): increasing trend | increase in CBF ([2]; 0.1% ascorbate vs control): 13.5% | increase in mucous transport ([2]; 0.1% ascorbate, extrapolated from CBF increase): ~50% | CBF ([2]; 0.1% ascorbate, control 11.8 Hz): 1304 Hz | inhibition of planktonic form (in words) [3]: dose dependent inhibition

Reference: patent US8337906B2, “Nasal composition” (priority 2006, dated 2012)
